One experiment has as its target T1, MER (Homo sapiens, UniProt Q12866).
T1 sequence (Q12866 21-999): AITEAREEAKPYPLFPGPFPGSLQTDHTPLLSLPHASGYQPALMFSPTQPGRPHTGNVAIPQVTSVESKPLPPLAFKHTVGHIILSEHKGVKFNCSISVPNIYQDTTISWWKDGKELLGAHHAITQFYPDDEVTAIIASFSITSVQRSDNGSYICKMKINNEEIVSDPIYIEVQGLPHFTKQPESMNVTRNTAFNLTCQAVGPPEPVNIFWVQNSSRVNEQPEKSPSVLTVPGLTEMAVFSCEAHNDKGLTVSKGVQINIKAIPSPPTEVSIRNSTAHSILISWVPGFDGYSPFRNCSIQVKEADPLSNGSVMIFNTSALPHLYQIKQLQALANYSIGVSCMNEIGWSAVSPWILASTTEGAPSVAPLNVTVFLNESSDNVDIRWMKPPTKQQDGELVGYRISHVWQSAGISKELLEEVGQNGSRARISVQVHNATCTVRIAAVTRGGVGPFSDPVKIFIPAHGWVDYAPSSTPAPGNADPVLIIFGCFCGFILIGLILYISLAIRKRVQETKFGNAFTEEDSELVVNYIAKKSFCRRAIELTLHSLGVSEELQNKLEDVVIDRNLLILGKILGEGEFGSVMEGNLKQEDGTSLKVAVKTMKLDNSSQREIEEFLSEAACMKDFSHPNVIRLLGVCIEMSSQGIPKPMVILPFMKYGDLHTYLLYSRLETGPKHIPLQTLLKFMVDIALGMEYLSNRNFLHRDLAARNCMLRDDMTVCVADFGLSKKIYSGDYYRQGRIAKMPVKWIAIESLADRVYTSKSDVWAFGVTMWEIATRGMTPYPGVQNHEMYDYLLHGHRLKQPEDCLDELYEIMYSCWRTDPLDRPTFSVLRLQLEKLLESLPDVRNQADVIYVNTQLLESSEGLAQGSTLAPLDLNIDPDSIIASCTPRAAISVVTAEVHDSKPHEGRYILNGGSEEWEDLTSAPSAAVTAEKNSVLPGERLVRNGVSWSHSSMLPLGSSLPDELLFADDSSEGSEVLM
As to the kind of experiment: radiometric kinase assay at ATP Km. Type of experiment: biochemical.

Experiment [1] has as its target vascular endothelial growth factor receptor 1 (Homo sapiens, UniProt P17948). As to the kind of experiment: BaF3 panel of […] receptor tyrosine kinases, […] inhibition at […]. The following applies: BaF3, read-out: % inhibition at 100 nM. The class given is cell-based.
The target of a further experiment is FGFR3 (Homo sapiens, UniProt P22607). The description is as above. Type of experiment: cell-based. The following applies: BaF3, read-out: % inhibition at 100 nM.

pIC50: −log10 of the molar value.

The results in this text go back to paper PMC8462401 (Blood, 2021).

As a reminder, the pIC50 is the negative decadic logarithm of the IC50, by convention in mol/L. One may read the inhibition as how much of the control response was suppressed.

Sequence of vascular endothelial growth factor receptor 1 (P17948 27-1338): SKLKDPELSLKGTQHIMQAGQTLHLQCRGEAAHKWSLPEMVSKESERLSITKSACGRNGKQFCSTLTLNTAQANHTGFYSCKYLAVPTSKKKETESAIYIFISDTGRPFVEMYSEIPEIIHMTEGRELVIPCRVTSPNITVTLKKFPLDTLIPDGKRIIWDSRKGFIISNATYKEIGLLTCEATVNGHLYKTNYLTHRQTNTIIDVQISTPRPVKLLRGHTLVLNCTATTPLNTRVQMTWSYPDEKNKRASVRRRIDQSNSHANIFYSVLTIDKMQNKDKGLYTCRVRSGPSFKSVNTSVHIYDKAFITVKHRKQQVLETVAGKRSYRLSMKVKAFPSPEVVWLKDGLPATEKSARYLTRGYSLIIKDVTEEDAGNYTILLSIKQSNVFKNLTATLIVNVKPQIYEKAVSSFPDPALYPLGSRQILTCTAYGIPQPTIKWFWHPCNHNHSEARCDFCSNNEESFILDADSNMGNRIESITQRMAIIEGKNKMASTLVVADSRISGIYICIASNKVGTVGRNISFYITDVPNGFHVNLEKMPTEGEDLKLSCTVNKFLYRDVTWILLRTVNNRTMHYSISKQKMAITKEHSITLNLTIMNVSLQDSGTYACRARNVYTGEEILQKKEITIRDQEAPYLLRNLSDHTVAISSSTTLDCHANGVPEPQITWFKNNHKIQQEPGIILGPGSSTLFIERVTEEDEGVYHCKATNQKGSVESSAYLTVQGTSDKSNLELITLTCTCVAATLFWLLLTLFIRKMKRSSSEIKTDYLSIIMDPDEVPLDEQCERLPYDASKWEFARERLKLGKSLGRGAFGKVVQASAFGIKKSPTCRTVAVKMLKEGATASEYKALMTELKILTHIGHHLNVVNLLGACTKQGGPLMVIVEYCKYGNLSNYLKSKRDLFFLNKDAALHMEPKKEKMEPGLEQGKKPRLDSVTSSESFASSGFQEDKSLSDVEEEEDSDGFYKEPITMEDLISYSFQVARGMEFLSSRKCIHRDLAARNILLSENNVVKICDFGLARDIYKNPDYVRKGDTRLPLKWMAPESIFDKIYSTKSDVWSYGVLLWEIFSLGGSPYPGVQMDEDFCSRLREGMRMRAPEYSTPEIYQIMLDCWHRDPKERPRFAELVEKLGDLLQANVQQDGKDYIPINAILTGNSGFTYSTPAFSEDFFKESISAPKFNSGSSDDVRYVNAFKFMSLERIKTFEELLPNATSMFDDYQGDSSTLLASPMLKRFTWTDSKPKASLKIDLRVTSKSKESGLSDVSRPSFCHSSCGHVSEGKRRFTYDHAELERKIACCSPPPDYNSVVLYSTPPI
Sequence of FGFR3 (P22607 23-806): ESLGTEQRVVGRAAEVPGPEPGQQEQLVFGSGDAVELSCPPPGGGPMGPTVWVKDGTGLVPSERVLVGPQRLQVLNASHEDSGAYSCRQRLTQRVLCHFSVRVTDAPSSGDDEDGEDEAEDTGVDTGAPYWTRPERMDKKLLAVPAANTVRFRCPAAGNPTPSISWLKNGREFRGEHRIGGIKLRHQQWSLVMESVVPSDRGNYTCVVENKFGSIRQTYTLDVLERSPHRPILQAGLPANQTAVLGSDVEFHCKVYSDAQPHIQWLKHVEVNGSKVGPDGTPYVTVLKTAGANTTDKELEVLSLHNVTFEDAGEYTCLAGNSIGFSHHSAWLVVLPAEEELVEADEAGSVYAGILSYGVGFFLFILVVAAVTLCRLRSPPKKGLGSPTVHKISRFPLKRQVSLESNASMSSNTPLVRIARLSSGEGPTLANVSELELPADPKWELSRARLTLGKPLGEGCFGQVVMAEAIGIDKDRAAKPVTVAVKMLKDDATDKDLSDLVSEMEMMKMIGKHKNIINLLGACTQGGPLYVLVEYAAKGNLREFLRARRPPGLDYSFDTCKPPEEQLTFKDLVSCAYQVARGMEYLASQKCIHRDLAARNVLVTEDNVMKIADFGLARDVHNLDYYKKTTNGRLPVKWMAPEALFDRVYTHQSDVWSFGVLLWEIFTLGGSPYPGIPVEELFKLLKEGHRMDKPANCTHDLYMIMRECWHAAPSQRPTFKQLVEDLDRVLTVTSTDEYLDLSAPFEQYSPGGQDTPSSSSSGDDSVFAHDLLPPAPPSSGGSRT

The molecule `Nc1ncc(-c2cnn(C3CCNCC3)c2)cc1-c1nnc(CC2CC2)o1` [SLC-391, 3-(5-(cyclopropylmethyl)-1,3,4-oxadiazole-2-yl)-5-(1-(piperidine-4-yl)-1H-pyrazole-4-yl)pyridine-2-amine] showed a pIC50 against MER of 7.36. Further, the inhibition at 0.1 µM (in experiment [1]; at FGFR3) was 60% throughout.
